Data: the NIST ThermoML archive (doi:10.1016/j.tca.2018.08.022)
Numbers after ± are expanded uncertainties.

Columns and labels:
[1] = for mass density: 101.33 kPa, X-ray diffraction
[2] = Molar enthalpy of transition or fusion; details: DSC

| SMILES | Triple point temperature ([1]; Crystal, visual observation) [K] | Molar enthalpy of transition or fusion ([2]; Crystal 1) [kcal/mol] | Molar enthalpy of transition or fusion ([2]; Crystal 2) [kcal/mol] | Triple point temperature ([1]; Crystal 1, DSC) [K] | Triple point temperature ([1]; Crystal 2, DSC) [K] | Triple point temperature ([1]; Metastable crystal, DSC) [K] | other results |
| --- | --- | --- | --- | --- | --- | --- | --- |
| N#Cc1ccc(-c2ccc([N+](=O)[O-])cc2C#N)cc1C#N [4-nitro-[1,1'-biphenyl]-2,3',4'-tricarbonitrile] | 472.15 ± 3 | – | – | – | – | – | – |
| N#Cc1ccc(-c2ccc(N)cc2C#N)cc1C#N [4-amino-[1,1'-biphenyl]-2,3',4'-tricarbonitrile] | 558.15 ± 3 | – | – | – | – | – | – |
| N#Cc1cc(N)ccc1-c1ccc2c(c1)C(=O)NC2=O [5-amino-2-(1,3-dioxoisoindolin-5-yl)benzonitrile] | 589.15 ± 3 | – | – | – | – | – | – |
| CCCCCCCCN(CCCCCCCC)c1ccc(N=Nc2ccc(-c3ccc(C#N)c(C#N)c3)c(C#N)c2)cc1 | – | – | – | 368.35 ± 0.8 | – | 365.05 ± 0.8 | mass density ([1]; 296 K, Metastable crystal): 1124 ± 7 kg/m3 |
| CCCCN(CCCC)c1ccc(N=Nc2ccc(-c3ccc4c(c3)C(=O)NC4=O)c(C#N)c2)cc1 | – | 6.72 ± 0.239 | 0.621 ± 0.0478 | 456.85 ± 0.8 | 436.45 ± 0.8 | – | mass density ([1]; 200 K, Crystal 2): 1262 ± 7 kg/m3 |

Now from value to compound, other results behind:

| Triple point temperature ([1]; Crystal, visual observation) [K] | Molar enthalpy of transition or fusion ([2]; Crystal 1) [kcal/mol] | Molar enthalpy of transition or fusion ([2]; Crystal 2) [kcal/mol] | Triple point temperature ([1]; Crystal 1, DSC) [K] | Triple point temperature ([1]; Crystal 2, DSC) [K] | Triple point temperature ([1]; Metastable crystal, DSC) [K] | SMILES | other results |
| --- | --- | --- | --- | --- | --- | --- | --- |
| 567.15 ± 3 | – | – | – | – | – | N#Cc1cc([N+](=O)[O-])ccc1-c1ccc2c(c1)C(=O)NC2=O [2-(1,3-dioxoisoindolin-5-yl)-5-nitrobenzonitrile] | – |
| – | 8.13 ± 0.287 | 1.31 ± 0.0717 | 503.45 ± 0.8 | 487.95 ± 0.8 | 489.35 ± 0.8 | CCN(CC)c1ccc(N=Nc2ccc(-c3ccc(C#N)c(C#N)c3)c(C#N)c2)cc1 | mass density ([1]; 296 K, Crystal 2): 1217 ± 8 kg/m3 |
| – | 8.48 ± 0.311 | 0.645 ± 0.0478 | 469.05 ± 0.8 | 386.25 ± 0.8 | – | CCCCN(CCCC)c1ccc(N=Nc2cccc(C#N)c2-c2ccc(C#N)c(C#N)c2)cc1 | mass density ([1]; 296 K, Crystal 2): 1180 ± 6 kg/m3 |
| – | 8.39 ± 0.311 | – | 427.35 ± 0.8 | – | 403.45 ± 0.8 | CCCCN(CCCC)c1ccc(N=Nc2ccc(-c3ccc(C#N)c(C#N)c3)c(C#N)c2)cc1 | mass density ([1]; 296 K, Crystal 1): 1165 ± 6 kg/m3; Glass transition temperature ([1]; Glass, DSC): 42.00 ± 0.8 °C |
